# Measurements from ChEMBL document CHEMBL3525899, “Identification of the cytochrome P450 and other enzymes involved in the in vitro oxidative metabolism of a novel antidepressant, Lu AA21004” (Drug Metab Dispos, 2012).
# Assays:
# Cytochrome P450 2E1 [1] = target: T1, Cytochrome P450 2E1 (Homo sapiens, UniProt P05181); assay: Activity of human recombinant CYP2E1 expressed in microsomes isolated from human AHH-1 cells assessed as enzyme-mediated 3-(2,4-dimethylphenylthio)-4-(piperazin-1-yl)phenol formation at 8 to 50 uM after 120 mins by HPLC/MS-MS analysis in presence of NADPH regenerating system with NADP+; type: ADME, cell-free; details: 2 h
# Cytochrome P450 2E1 [2] = target: T1, Cytochrome P450 2E1; assay: Activity of human recombinant CYP2E1 expressed in microsomes isolated from human AHH-1 cells assessed as enzyme-mediated 1-(2-(2,4-dimethylphenylsulfinyl)phenyl)piperazine formation at 8 to 50 uM after 120 mins by HPLC/MS-MS analysis in presence of NADPH regenerating system with NADP+; type: ADME, cell-free; details: 2 h
# [3] = target: T2, Flavin-containing monooxygenase 3 (Homo sapiens, UniProt P31513); assay: (§1) Activity of human recombinant FMO3 expressed in microsomes isolated from baculovirus infected insect BTI-TN-5B1-4 cells assessed as enzyme-mediated 4-(2-(2,4-dimethylphenylthio)phenyl)piperazin-1-ol formation at 8 to 50 uM after 120 mins by HPLC/MS-MS analysis in presence of NADPH regenerating system with NADP+; type: ADME; details: 2 h
# T2 sequence (P31513 whole entry): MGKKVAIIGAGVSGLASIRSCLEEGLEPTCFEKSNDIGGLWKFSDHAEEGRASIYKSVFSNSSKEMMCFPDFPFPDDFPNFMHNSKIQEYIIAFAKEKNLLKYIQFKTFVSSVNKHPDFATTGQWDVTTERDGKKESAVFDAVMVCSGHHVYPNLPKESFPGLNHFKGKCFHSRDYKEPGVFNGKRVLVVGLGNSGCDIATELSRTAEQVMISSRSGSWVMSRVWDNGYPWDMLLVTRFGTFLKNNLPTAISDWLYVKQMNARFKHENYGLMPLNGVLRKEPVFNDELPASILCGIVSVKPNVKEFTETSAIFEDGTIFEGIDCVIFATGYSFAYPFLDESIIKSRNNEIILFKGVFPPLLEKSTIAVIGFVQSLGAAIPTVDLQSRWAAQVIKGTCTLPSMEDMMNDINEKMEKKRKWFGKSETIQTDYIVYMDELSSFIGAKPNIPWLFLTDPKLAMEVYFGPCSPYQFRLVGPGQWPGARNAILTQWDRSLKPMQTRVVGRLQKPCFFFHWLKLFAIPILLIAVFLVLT
# Liver microsome [4] = assay: Drug metabolism in pooled human liver microsomes assessed as formation of 4-(2-(2,4-dimethylphenylthio)phenyl)piperazin-1-ol at 100 uM after 30 to 180 mins by HPLC/MS-MS analysis in presence of NADPH regenerating system with NADP+; type: ADME
# Cytochrome P450 2B6 = target: T3, Cytochrome P450 2B6 (Homo sapiens, UniProt P20813); assay: Activity of human recombinant CYP2B6 expressed in microsomes isolated from human AHH-1 cells assessed as enzyme-mediated 1-(2-(2,4-dimethylphenylsulfinyl)phenyl)piperazine formation at 8 to 50 uM after 120 mins by HPLC/MS-MS analysis in presence of NADPH regenerating system with NADP+; type: ADME, cell-free; details: 2 h
# T3 sequence (P20813 whole entry): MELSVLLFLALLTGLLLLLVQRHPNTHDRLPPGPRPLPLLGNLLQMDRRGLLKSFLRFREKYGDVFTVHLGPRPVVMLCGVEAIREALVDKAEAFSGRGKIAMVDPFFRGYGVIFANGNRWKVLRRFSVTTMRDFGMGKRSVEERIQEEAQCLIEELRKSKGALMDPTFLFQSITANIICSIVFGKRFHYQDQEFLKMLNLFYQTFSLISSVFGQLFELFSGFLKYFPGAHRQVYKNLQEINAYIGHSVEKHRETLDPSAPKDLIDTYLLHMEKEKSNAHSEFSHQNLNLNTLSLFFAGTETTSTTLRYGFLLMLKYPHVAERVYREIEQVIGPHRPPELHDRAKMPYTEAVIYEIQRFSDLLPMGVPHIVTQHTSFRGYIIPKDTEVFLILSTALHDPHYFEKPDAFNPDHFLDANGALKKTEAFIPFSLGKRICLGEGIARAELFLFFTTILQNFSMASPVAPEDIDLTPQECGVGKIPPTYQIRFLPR
# Cytochrome P450 2C9 [5] = target: T4, Cytochrome P450 2C9 (Homo sapiens, UniProt P11712); assay: Activity of human recombinant CYP2C9 expressed in microsomes isolated from human AHH-1 cells assessed as enzyme-mediated 4-(2-(2,4-dimethylphenylthio)phenyl)piperazin-1-ol formation at 8 to 50 uM after 120 mins by HPLC/MS-MS analysis in presence of NADPH regenerating system with NADP+; type: ADME, cell-free; details: 2 h
# Cytochrome P450 2C9 [6] = target: T4, Cytochrome P450 2C9; assay: Activity of human recombinant CYP2C9 expressed in microsomes isolated from human AHH-1 cells assessed as enzyme-mediated 3-(2,4-dimethylphenylthio)-4-(piperazin-1-yl)phenol formation at 8 to 50 uM after 120 mins by HPLC/MS-MS analysis in presence of NADPH regenerating system with NADP+; type: ADME, cell-free; details: 2 h
# Cytochrome P450 2D6 = Cytochrome P450 2D6 (Homo sapiens, UniProt P10635); assay: Activity of human recombinant CYP2D6 expressed in microsomes isolated from human AHH-1 cells assessed as enzyme-mediated (3-methyl-4-(2-(piperazin-1-yl)phenylthio)phenyl)methanol formation at 8 to 50 uM after 120 mins by HPLC/MS-MS analysis in presence of NADPH regenerating system with NADP+; type: ADME, cell-free; details: 2 h
# [7] = target: T2, Flavin-containing monooxygenase 3; assay: as §1, with “3-methyl-4-(2-(piperazin-1-yl)phenylthio)phenyl)methanol” for “4-(2-(2,4-dimethylphenylthio)phenyl)piperazin-1-ol”; type: ADME; details: 2 h
# Liver microsome [8] = assay: Intrinsic clearance in pooled human liver microsomes assessed as Vmax(app)/Km(app) for formation of (3-methyl-4-(2-(piperazin-1-yl)phenylthio)phenyl)methanol per mg of protein after 30 mins by Michaelis-Menten plot analysis in presence of NADPH regenerating system with NADP+; type: ADME; details: 0.5 h
# Cytochrome P450 3A4 = Cytochrome P450 3A4 (Homo sapiens, UniProt P08684); assay: Activity of human recombinant CYP3A4 expressed in microsomes isolated from human AHH-1 cells assessed as enzyme-mediated 1-(2-(2,4-dimethylphenylsulfinyl)phenyl)piperazine formation at 8 to 50 uM after 120 mins by HPLC/MS-MS analysis in presence of NADPH regenerating system with NADP+; type: ADME, cell-free; details: 2 h
# Chain of Cytochrome P450 3A4 (P08684 whole entry): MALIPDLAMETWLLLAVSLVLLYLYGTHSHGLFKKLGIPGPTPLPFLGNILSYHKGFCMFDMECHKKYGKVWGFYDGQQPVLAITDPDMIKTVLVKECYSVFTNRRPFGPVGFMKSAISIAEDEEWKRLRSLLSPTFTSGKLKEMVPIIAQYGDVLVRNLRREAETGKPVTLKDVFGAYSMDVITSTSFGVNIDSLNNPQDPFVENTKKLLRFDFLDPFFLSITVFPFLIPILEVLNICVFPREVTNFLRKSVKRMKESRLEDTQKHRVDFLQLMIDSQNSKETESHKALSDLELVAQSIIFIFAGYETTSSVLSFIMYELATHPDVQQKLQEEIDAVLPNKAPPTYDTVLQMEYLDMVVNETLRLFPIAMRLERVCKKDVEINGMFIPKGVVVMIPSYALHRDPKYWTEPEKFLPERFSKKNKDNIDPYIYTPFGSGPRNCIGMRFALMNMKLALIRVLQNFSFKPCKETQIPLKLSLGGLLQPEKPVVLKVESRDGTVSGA
# T4 sequence (P11712 whole entry): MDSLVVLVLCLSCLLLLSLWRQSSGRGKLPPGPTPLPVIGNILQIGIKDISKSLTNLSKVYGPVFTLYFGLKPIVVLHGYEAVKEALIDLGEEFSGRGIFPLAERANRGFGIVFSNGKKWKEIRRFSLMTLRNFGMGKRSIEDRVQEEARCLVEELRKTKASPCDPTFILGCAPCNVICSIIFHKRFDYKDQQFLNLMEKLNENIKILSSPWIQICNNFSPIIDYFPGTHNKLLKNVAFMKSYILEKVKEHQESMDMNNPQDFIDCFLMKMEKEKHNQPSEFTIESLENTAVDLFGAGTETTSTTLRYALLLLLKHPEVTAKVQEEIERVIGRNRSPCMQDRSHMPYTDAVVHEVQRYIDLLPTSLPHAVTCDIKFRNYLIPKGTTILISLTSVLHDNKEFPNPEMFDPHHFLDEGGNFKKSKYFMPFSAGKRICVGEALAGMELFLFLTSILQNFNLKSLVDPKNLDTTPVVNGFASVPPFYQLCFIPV
# T1 sequence (P05181 whole entry): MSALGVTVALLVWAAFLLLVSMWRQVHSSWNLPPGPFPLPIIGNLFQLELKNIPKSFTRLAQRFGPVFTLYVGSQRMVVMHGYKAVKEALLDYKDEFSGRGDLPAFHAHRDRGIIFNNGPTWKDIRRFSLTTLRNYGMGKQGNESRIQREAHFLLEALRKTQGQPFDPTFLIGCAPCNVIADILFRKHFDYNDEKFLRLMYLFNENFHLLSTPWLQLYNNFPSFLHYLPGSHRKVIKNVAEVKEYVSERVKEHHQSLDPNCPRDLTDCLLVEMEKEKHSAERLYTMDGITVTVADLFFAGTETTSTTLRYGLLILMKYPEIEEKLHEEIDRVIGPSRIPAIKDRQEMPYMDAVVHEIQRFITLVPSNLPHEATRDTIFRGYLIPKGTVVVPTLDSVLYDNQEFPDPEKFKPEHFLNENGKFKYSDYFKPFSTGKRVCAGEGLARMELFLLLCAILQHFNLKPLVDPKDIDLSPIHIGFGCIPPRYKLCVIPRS
# Chain of Cytochrome P450 2D6 (P10635 whole entry): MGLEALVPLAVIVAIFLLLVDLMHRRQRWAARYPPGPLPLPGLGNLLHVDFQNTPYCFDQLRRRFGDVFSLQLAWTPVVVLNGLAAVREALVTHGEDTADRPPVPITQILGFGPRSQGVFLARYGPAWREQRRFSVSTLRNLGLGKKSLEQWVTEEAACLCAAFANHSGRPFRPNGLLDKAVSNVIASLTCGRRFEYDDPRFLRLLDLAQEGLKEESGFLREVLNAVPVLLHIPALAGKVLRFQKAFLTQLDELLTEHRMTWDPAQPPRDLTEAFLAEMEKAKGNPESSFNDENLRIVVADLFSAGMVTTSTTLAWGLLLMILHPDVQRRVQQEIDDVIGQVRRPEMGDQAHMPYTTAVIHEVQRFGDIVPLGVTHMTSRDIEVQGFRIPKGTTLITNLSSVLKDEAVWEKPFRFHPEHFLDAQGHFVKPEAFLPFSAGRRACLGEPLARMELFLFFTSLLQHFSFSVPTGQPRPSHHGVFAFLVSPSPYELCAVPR
compound,measurement,setting,value
Br.Cc1ccc(Sc2ccccc2N2CCNCC2)c(C)c1 [VORTIOXETINE HYDROBROMIDE],Drug metabolism,Cytochrome P450 2E1 [1],metabolite_not_detected
same,Drug metabolism,Cytochrome P450 2E1 [2],metabolite_not_detected
same,Drug metabolism,[3],metabolite_not_detected
same,Drug metabolism,Liver microsome [4],metabolite_detected
same,Drug metabolism,Cytochrome P450 2B6,metabolite_not_detected
same,Drug metabolism,Cytochrome P450 2C9 [5],metabolite_detected
same,Drug metabolism,Cytochrome P450 2C9 [6],metabolite_detected
same,Drug metabolism,Cytochrome P450 2D6,metabolite_detected
same,Drug metabolism,[7],metabolite_not_detected
same,Vmax/Km,Liver microsome [8],1.13 µL/min
same,Drug metabolism,Cytochrome P450 3A4,metabolite_detected
